Experimental data taken from patent US20110046223A1, “TREATMENT OF NEUROFIBROMATOSIS” (RAMOT AT TEL-AVIV UNIVERSITY LTD., priority 2006, published 2011).

What was measured:
Ras = test: steady-state Ras levels, Western immunoblotting; type: cell-based, human; conditions: 75 μM FTS, 48 hours, all cell lines, P<0.05
Method: Unless otherwise indicated, cells were lysed 48 hours after being treated with lysis buffer, as described in Haklai, et al., supra. […] Protein bands were visualized by ECL and quantified by densitometry with Image Master VDS-CL (Amersham) using TINA 2.0 software (Ray Tests). To obtain reliable comparisons between replicated experiments for statistical analysis, a standardization procedure was used, in which the density of each given protein band as recorded with its specific Ab, was normalized. […] The standard average density was defined as 1.0, and each of the individually determined bands was related to this value. […] Actin cytoskeletal elements were labeled with rhodamine-phalloidin, and digital fluorescence images were collected on a Zeiss LSM 510 confocal microscope fitted with fluorescein and rhodamine filters, as described in Gana-Weisz, M., et al., supra. […]

non-NF-1 STS26T cells = test: actin stress fibers, rhodamine-phalloidin confocal microscopy; type: cell-based, human; conditions: 75 μM FTS, mean±SD, n=3, P<0.05
Method: (§1) The human NF-1 MPNST cell lines ST88-14, T265P21 and 90-8 and the non-NF-1 human MPNST cell line STS26T were obtained from Dr. Nancy Ratner. T265P21, 90-8, and ST88-14 cells were maintained in RPMI/15% fetal calf serum (FCS) medium and STS26T cells were maintained in DMEM/10% FCS, as described in Weisz, B., et al., supra. Cells were plated at a density of 1×10^6 cells per 10-cm plate for biochemical and immunoblotting assays, 2.5×10^3 cells/well in 24-well plates for cell-growth assays, or on glass cover slips (5×10^4 cells per 35-mm dish) for labeling of actin cytoskeletal elements. […]
(§2) Unless otherwise indicated, cells were lysed 48 hours after being treated with lysis buffer, as described in Haklai, et al., supra. […] Protein bands were visualized by ECL and quantified by densitometry with Image Master VDS-CL (Amersham) using TINA 2.0 software (Ray Tests). To obtain reliable comparisons between replicated experiments for statistical analysis, a standardization procedure was used, in which the density of each given protein band as recorded with its specific Ab, was normalized. […] The standard average density was defined as 1.0, and each of the individually determined bands was related to this value. […]

[1] = tested on: NF-1 cell lines T265P21, ST88-14, and 90-8; test: as above; type: cell-based, human; conditions: T265P21, ST88-14, and 90-8, 75 μM FTS; controls 82%-87%
Method: as §1, §2

ST88-14 cells = test: soft agar assay, anchorage-independent growth; type: cell-based; conditions: Homo sapiens, 504 h, 3 weeks, read-out: inhibition of colony formation
Method: (§3) Noble agars (2% and 0.6%; Difco, Sparks, Md.) were prepared in double-distilled water and autoclaved. The 2% agar was melted and mixed with medium (DMEM X2 with 20% FCS, 100 μg/mL penicillin, and […]) and the mixture (50 μL) was placed in 96-well plates to provide the base agar (at a final concentration of 1%).
(§4) To determine whether FTS inhibited the transforming activity associated with NF-1-deficiency and to determine the effect of FTS on anchorage-independent growth, soft agar assays were performed. ST88-14 and STS26T cells were plated in soft agar and then treated with 0.1% DMSO as a control or with FTS (25 μM, 50 μM, or 75 μM) and grown for 3 weeks or 2 weeks, respectively. […] FTS inhibited colony formation of both cell lines; in the presence of 50 μM FTS, for example, colony formation was inhibited by 60% in STS26T cells and by 57% in ST88-14 cells. In the presence of 75 μM FTS, colony formation was inhibited by 84% and 87% in ST88-14 and STS26T cells, respectively.

STS26T cells = test: soft agar assay, anchorage-independent growth; type: cell-based; conditions: Homo sapiens, STS-26T, 336 h, 2 weeks, read-out: inhibition of colony formation
Method: as §3, §4

`CC(C)=CCC/C(C)=C/CC/C(C)=C/CSc1ccccc1C(=O)O` [FTS, S-farnesylthiosalicylic acid] was tested, and the “reduction in Ras levels” value (Ras) was 15-30%, the “increase in stress-fiber formation” value (non-NF-1 STS26T cells) was 27%±11.9% and the “cells with stress fibers after FTS, relative to total cell number” value [1] was 11%-20%. For the same compound, the inhibition at 50 µM (ST88-14 cells; 50 μM FTS) was 57%, the inhibition at 75 µM (ST88-14 cells; 75 μM FTS) was 84% and the inhibition at 50 µM (STS26T cells; 50 μM FTS) was 60%. It also gave an inhibition at 75 µM (STS26T cells; 75 μM FTS) of 87%.
